Experimental data as given in PubChem BioAssay (NCI).
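Results reflect a 48-hour exposure of cells in 96-well plates to compound at five concentrations. TGI is the concentration that stops growth completely.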

Key:
Experiment in all cases: growth of human tumour cells (NCI), 48 h
[1] = tested on: OVCAR-3 ovarian
[2] = tested on: EKVX NSCLC
[3] = tested on: MDA-MB-231 breast
[4] = tested on: HS 578T breast
[5] = tested on: SNB-75 CNS
[6] = tested on: TK-10 renal
[7] = tested on: U251 CNS
[8] = tested on: PC-3 prostate
[9] = tested on: HOP-92 NSCLC
[10] = tested on: CAKI-1 renal
[11] = tested on: OVCAR-4 ovarian
[12] = tested on: SF-539 CNS

SMILES | TGI [1] | TGI [2] | TGI [3] | TGI [4] | TGI [5] | TGI [6] | TGI [7] | TGI [8] | TGI [9] | TGI [10] | TGI [11] | TGI [12]
CSC1=N/C(=C\c2ccc(Cl)cc2)C(=O)N1CN1CCCCC1 | > 100 µM | 53.3 µM | > 100 µM | > 100 µM | > 100 µM | > 100 µM | > 100 µM | > 100 µM |  |  |  | 
C[C@H](C1CC(C)(O)C(C)(O)C(O)O1)[C@H]1CC[C@H]2[C@@H]3[C@@H]4O[C@@H]4[C@@]4(O)CC=CC(=O)[C@]4(C)[C@H]3CC[C@]12C (stereo partly specified) | > 50 µM | > 50 µM | > 50 µM | 17.4 µM | > 50 µM | > 50 µM | > 50 µM | > 50 µM | > 50 µM | > 50 µM | > 50 µM | 
OC12c3ccccc3C1CCCCC2N1CCCC1 (stereo unspecified) |  | > 100 µM |  |  | > 100 µM | > 100 µM | > 100 µM |  |  |  | > 100 µM | 
CC(C)CC(NC(=O)C(C)(CI)Cc1ccccc1)C(=O)Nc1ccccc1 (stereo unspecified) | > 100 µM | > 100 µM | > 100 µM |  | > 100 µM | > 100 µM | > 100 µM | > 100 µM | > 100 µM | > 100 µM | > 100 µM | > 100 µM
Cc1c(C)c2ccc(OCC(O)COC(C)C)c(C)c2oc1=O (stereo unspecified) | > 100 µM | > 100 µM |  | > 100 µM |  | 62.3 µM | 33.8 µM | > 100 µM | > 100 µM | > 100 µM | > 10 µM | 
CSc1ncnc2c1ncn2CCC(=O)O | > 100 µM | > 100 µM | > 100 µM |  | > 100 µM | > 100 µM |  | > 100 µM | > 100 µM | > 100 µM | > 100 µM | > 100 µM
COc1ccc2c3c1OC1C(F)C=CC4(O)C(C2)NCCC314 (stereo unspecified) | 7.07 µM | 11 µM | 12.7 µM | 5.83 µM | 6.58 µM | 12.8 µM | 6.59 µM | 6.92 µM | 20.2 µM | 6.56 µM | 7.05 µM | 
CCOC(=O)c1cc(C2CCN(c3ccccc3)C2=O)c(/C(O)=C/C(C)=O)[nH]1 (stereo unspecified) | > 100 µM | > 100 µM | > 100 µM | > 100 µM | > 100 µM | > 100 µM | > 100 µM | > 100 µM |  | > 100 µM | > 100 µM | 31.9 µM
COc1ccc(N=c2oc3ccccc3cc2C(N)=O)cc1 | > 100 µM | > 100 µM | > 100 µM | 42.9 µM | > 100 µM | 46.6 µM | > 100 µM | > 100 µM | > 100 µM | 32.4 µM |  | 63.6 µM
CC(=O)OC[C@H]1CN(OC(C)=O)C[C@@H](n2cc(C)c(=O)[nH]c2=O)O1 |  | > 100 µM | > 100 µM | > 100 µM | > 100 µM | > 100 µM | > 100 µM | > 100 µM |  | > 100 µM | > 100 µM | > 100 µM
O=c1ccc2ccc(OP(=O)(O)O)cc2o1 | > 100 µM | > 100 µM | > 100 µM | > 100 µM | > 100 µM | > 100 µM | > 100 µM | > 100 µM |  | > 100 µM | > 100 µM | > 100 µM
CCOC(=O)C(C(=O)OCC)=C1SC(=Nc2ccccc2)C(=Nc2ccccc2)N1c1ccccc1 | > 100 µM | > 100 µM | > 100 µM | > 100 µM | > 100 µM |  | > 100 µM | > 100 µM | > 100 µM | > 100 µM |  | > 100 µM
CC1CC(N)=C(C#N)C1(C#N)C#N (stereo unspecified) |  | > 100 µM | > 100 µM | > 100 µM | > 100 µM | > 100 µM | > 100 µM | > 100 µM | > 100 µM | 59.7 µM |  | > 100 µM
OC1(C(Sc2cc(C(F)(F)F)cc(C(F)(F)F)c2)Sc2cc(C(F)(F)F)cc(C(F)(F)F)c2)C=CCCC1 (stereo unspecified) | 6.14 µM | 6.78 µM |  | 13.3 µM | 10.8 µM | 3.8 µM |  |  | 9.15 µM | 6.33 µM | 7.06 µM | 
COC(=O)c1c([N+](=O)[O-])ncn1[C@H]1OC[C@@H](OC(C)=O)[C@@H](OC(C)=O)[C@@H]1OC(C)=O | > 100 µM | > 100 µM | > 100 µM |  | > 100 µM | > 100 µM | > 100 µM | > 100 µM | > 100 µM | > 100 µM | > 100 µM | > 100 µM
Cc1ccc(CC2(C(=O)O)Cc3ccc(C)cc3C2)cc1 (stereo unspecified) | > 100 µM | > 100 µM | > 100 µM | > 100 µM | > 100 µM | > 100 µM | > 100 µM | > 100 µM |  | > 100 µM | > 100 µM | > 100 µM
COc1ccccc1Nc1nc2c([nH]1)c(=O)n(C)c(=O)n2C |  | > 10 µM | > 10 µM |  | > 10 µM | > 10 µM |  | > 10 µM | > 10 µM | > 10 µM | > 10 µM | 
CC1=NN(c2cccc(Cl)c2)C2(SCC(=O)N2c2nc3ccccc3s2)C1=CC=Cc1ccccc1 (stereo unspecified) | > 100 µM | > 100 µM | 72 µM | 63.4 µM |  | > 100 µM | 48.8 µM | > 100 µM | 45.5 µM | > 100 µM | > 100 µM | > 100 µM
O=C(Nc1ccc(C(F)(F)F)cc1)NC(F)(F)F |  | > 100 µM |  | > 100 µM | > 100 µM | > 100 µM | > 100 µM | > 100 µM |  | > 100 µM |  | > 100 µM
O=C1/C(=C\c2ccc(Cl)cc2)N=C(c2ccccc2)N1n1c(=O)cn[nH]c1=S | 76.2 µM | > 100 µM |  |  |  |  | 37.7 µM | > 100 µM |  | > 100 µM | 69 µM | > 100 µM
O=c1oc2ccc3ccccc3c2cc1-c1nnc(Nc2ccccc2)s1 | 31.4 µM | > 100 µM | 35.1 µM | > 100 µM |  | 32.1 µM | 21.3 µM | 36.6 µM |  | > 100 µM | 38.8 µM | 
